PMC5686591, “Identification and Characterization of the Major Porin of Desulfovibrio vulgaris Hildenborough” (Journal of Bacteriology, 2017)

Target: T1, DVU0799 (Nitratidesulfovibrio vulgaris, UniProt Q72DY0)
T1 construct: gene DVU_0799; native protein purified from wild-type outer membranes (octyl glucoside), untagged; monomer about 50 kDa, homotrimer; reconstituted in proteoliposomes
T1 sequence (Q72DY0 24-466): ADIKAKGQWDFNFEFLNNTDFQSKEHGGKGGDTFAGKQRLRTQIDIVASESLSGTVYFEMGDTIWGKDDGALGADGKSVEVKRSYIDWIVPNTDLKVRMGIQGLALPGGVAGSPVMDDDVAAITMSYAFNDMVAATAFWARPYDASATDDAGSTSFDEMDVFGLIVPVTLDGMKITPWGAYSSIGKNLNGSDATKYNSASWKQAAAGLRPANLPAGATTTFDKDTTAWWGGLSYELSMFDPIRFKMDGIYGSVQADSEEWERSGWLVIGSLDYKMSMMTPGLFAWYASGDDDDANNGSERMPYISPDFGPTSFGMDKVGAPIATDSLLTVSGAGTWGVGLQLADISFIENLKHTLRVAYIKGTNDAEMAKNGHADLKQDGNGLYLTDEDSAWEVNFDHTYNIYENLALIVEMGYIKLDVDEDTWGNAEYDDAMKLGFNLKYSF
Experiment: liposome swelling assay (OD400), reconstituted proteoliposomes
Assay type: biochemical
Conditions: pore permeation (passive diffusion)

SMILES: O=C(O)[C@H](O)[C@@H](O)[C@H](O)[C@H](O)CO [D-gluconate]
- relative permeability (relative to L-arabinose, 9 mM solute, 4 mM sodium NAD, 1 mM imidazole-NAD, pH 6.0): purified DVU0799 were also surveyed for their permeability to two sugar acids, D-gluconate

SMILES: OC1OC[C@H](O)[C@H](O)[C@H]1O (stereo partly drawn) [L-arabinose]
- relative permeability (scaling reference of the assay, about 20 mM solute): the permeability profile begins with that for L-arabinose at the upper limit
